What all share (test): Radioligand binding, cell membrane homogenates
Test [1] concerns the target T1, Alpha 2A adrenergic receptor (Homo sapiens, UniProt P08913).
T1 construct: expressed in transfected cells; host or cells: HEK-293
T1 sequence (P08913 1-465): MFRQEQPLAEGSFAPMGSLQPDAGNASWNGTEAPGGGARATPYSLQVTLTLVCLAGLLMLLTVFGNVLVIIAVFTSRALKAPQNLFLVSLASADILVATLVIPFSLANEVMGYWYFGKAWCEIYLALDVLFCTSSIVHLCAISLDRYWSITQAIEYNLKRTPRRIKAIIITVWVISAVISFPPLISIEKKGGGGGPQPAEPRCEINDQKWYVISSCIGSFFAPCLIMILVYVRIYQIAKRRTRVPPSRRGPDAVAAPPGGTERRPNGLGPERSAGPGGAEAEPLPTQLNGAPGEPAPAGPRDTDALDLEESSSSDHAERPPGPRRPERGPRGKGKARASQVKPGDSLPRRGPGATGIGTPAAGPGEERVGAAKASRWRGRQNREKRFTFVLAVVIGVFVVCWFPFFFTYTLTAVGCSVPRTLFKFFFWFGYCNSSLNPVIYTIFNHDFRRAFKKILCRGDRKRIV
As to the method:
(§1) Neuro-receptor binding and functional effects of the “E559 polymorph” was examined by analyzing binding affinity [Ki (nM)], functional agonist activity [EC50 (nM)], and functional antagonist activity [IC50 (nM)] against a panel of key receptors in neurophysiological disorders. Binding and functional assays were performed at “E559 polymorph” concentrations of 0.0003, 0.003, 0.01, 0.03, 0.1, 0.3, 1, and 10 μM. In binding assays, cell membrane homogenates, expressing each receptor target, were incubated with the corresponding radio-ligand in absence or presence of several concentration of the “E559 polymorph” compound. The measurement of binding affinity of the “E559 polymorph” is represented in TABLE XIII by Ki (nM) which was calculated as percent inhibition of the binding of a radioactively labeled reference ligand at each receptor. In functional assays the HEK-293 cells expressing each receptor target were suspended in buffer and distribute in microplates and incubated for 30 minutes at room temperature or 37° C. in the presence of buffer alone (basal control), the reference agonist or antagonist, or the “E559 polymorph. Following incubation, the cells were lysed and the appropriate fluorescent probe (Ca2+ flux, cAMP, or IP1) were added for 60 minutes to measure the fluorescence transfer at the appropriate wavelength using a microplate reader. The cellular agonist effect (EC50) was calculated as a percent of control response to a known reference agonist and the cellular antagonist effect (IC50) was calculated as a percent inhibition of control reference agonist response for each receptor.

In test [2] the target is T2, Alpha 2C adrenergic receptor (Homo sapiens, UniProt P18825).
T2 construct: expressed in transfected cells; host or cells: HEK-293
T2 sequence (P18825 1-462): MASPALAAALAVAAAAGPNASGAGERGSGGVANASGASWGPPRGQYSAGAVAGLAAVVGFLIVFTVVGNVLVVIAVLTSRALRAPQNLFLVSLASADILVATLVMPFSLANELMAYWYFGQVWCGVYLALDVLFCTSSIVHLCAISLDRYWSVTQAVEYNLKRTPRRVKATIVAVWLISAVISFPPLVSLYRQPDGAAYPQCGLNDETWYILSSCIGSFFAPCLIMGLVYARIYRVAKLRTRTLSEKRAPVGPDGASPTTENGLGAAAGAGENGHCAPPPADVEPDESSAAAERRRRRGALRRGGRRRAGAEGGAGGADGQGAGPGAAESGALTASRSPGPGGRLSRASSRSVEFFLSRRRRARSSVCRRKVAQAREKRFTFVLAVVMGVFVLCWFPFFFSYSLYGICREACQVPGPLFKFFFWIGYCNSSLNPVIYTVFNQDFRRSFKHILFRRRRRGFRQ
How it is done:
as §1

A further test addresses T3, D2S dopamine receptor (Homo sapiens, UniProt P14416).
T3 construct: expressed in transfected cells; host or cells: HEK-293
As to the method: as §1

Test [3] addresses T4, Serotonin 1A receptor (5-HT1AR) (Homo sapiens, UniProt P08908).
T4 construct: expressed in transfected cells; host or cells: HEK-293
T4 sequence (P08908 1-422): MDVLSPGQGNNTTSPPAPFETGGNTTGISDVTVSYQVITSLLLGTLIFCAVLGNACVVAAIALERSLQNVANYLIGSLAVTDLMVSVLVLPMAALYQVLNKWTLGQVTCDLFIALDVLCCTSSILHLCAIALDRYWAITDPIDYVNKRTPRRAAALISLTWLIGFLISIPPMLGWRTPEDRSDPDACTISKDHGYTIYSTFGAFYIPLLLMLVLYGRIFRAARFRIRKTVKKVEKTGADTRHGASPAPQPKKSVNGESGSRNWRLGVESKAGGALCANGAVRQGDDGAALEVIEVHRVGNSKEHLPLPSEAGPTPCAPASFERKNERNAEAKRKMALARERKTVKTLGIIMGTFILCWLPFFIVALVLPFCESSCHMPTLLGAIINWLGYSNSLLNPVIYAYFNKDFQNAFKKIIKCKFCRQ
As to the method: as §1

Test [4] addresses T5, Serotonin 1B receptor (5-HT1BR) (Homo sapiens, UniProt P28222).
T5 construct: expressed in transfected cells; host or cells: HEK-293
How it is done:
as §1

The target of test [5] is T6, Serotonin 2B receptor (5-HT2BR) (Homo sapiens, UniProt P41595).
T6 construct: expressed in transfected cells; host or cells: HEK-293
How it is done:
as §1

Test [6] has as its target T7, Serotonin 2C receptor (5-HT2CR) (Homo sapiens, UniProt P28335).
T7 construct: expressed in transfected cells; host or cells: HEK-293
T7 sequence (P28335 33-458): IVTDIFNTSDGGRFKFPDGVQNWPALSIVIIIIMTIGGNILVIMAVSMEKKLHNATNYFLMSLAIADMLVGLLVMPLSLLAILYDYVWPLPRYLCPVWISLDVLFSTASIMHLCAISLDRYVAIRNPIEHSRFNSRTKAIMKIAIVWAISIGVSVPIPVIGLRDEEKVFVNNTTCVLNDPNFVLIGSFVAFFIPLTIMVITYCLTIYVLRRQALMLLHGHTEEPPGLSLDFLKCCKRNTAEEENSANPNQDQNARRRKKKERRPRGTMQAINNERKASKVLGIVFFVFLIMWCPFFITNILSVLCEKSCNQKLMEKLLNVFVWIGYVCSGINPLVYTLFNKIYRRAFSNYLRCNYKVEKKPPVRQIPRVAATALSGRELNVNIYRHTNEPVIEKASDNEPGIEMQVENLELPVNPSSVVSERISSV
As to the method: as §1

T5 sequence (P28222 whole entry): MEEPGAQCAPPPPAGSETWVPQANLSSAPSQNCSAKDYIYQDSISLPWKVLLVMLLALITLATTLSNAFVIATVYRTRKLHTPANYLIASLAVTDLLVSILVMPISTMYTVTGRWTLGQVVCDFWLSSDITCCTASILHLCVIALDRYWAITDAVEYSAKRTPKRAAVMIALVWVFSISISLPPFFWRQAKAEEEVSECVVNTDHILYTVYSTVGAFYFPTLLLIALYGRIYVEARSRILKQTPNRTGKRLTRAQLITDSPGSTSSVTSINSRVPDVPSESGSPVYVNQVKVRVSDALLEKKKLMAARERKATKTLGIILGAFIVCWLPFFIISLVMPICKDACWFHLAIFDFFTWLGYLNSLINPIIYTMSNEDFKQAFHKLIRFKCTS
T6 sequence (P41595 whole entry): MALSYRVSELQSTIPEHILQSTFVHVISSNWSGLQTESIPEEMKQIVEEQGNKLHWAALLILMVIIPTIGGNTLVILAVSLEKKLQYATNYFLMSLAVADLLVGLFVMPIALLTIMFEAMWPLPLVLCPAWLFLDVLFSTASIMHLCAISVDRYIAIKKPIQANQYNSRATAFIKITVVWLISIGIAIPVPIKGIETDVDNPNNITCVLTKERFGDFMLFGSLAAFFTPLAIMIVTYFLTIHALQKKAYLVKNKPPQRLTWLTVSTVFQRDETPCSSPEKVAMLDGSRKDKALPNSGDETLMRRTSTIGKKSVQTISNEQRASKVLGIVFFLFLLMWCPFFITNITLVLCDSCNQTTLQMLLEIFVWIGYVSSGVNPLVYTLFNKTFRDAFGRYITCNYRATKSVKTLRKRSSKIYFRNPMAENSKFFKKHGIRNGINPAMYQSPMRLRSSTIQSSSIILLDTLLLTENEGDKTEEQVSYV
T3 sequence (P14416 1-414 isoform P14416-2): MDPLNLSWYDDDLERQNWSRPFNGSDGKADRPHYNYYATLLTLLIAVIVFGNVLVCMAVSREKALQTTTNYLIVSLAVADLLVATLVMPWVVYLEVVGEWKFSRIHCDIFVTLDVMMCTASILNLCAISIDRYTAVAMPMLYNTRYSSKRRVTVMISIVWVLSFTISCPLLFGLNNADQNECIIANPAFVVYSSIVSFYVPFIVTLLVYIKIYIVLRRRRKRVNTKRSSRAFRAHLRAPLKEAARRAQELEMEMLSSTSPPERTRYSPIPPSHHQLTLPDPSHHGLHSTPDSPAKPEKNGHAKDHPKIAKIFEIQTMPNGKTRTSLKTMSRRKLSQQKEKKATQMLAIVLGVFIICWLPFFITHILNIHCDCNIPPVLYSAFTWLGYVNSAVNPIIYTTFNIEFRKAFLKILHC

One may read the Ki as a measure of affinity in units of concentration, obtained from inhibition or displacement. Read a low Ki as a stronger hold on the target. Regarding `CCN(CC)C(=O)[C@@H]1C=C2c3cccc4[nH]c(Br)c(c34)C[C@H]2N(C)C1` [E559, (5R, 8R)-2-Bromo-9,10-didehydro-N,N-diethyl-6-methylergoline-8-carboxamide hemi-D-tartrate], the Ki in test [1] worked out at 10.3 nM; in test [2], 27 nM; on D2S dopamine receptor, 2.1 nM; in test [3], 9.3 nM; in test [4] it was 77 nM; in test [5] it was 7 nM. The same compound returned a Ki in test [6] of 19 nM.

These data come from US12331051B2 (priority 2021, dated 2025).
